Patent US5478807A, “Use of relaxin in the treatment of bradycardia” (Genentech, Inc., priority 1992, dated 1995)

Legend:
pubic symphysis = experiment: Mouse pubic symphysis assay; details: in vivo
Experimental: The concentration of relaxin was determined by amino acid analysis.

rat isolated heart = experiment: Chronotropy and inotropy in Langendorff rat isolated heart; details: for maximum beating rate: 83 pMol
Experimental: Male Sprague-Dawley rats weighing 300-350 g (Charles River, Portage, Ind., USA) were anesthetized with 60 mg/kg pentobarbital sodium (Fort Dodge Laboratories, Inc., Fort Dodge, Iowa, USA) intraperitoneally. Following thoracotomy, the hearts were removed and placed into 4° C. […] Any associated lung and thymic tissue were trimmed off and the ascending aorta cannulated. The heart was then perfused at 10 ml/min with Krebs-Henseleit solution at 37° C. The perfusion pressure was constantly monitored. A small incision was made in the left atrium and a water-filled balloon (Hugo Sachs Electronik, March-Hugstetten, Germany) connected to a pressure transducer (Gould Electronics, Valley View, Ohio, USA) was placed into the left ventricle for the measurement of left ventricular developed pressure (LVDP). From this pressure, recording heart rate was electronically derived on a Grass polygraph (Quincy, Mass., USA).
In six experiments, after a 15-20 minutes stabilization period, the atria were removed. The heart rate was then allowed to stabilize at its new rate before the administration of relaxin. In three experiments, the atria were left intact.
Relaxin was administered as 50 μl bolus injections into the perfusion fluid immediately prior to entering the heart. Cumulative dose-response curves were constructed using human recombinant H2 relaxin (Genentech, Inc. South San Francisco, Calif., USA). […] Serial dilutions of both drugs were made using 0.9% (w/v) saline solution.
Statistical significance was determined by a two-tailed Student's unpaired t-test and P<0.005 was taken as significant.

[1] = Continuous subcutaneous infusion in female SHR and SD rats, uterine weight; assay type: in vivo, rat; details: continuous s.c. infusion 1 or 10 ng/min
Experimental: Groups (4 to 9 animals in each group) of conscious, non-pregnant, Spontaneously Hypertensive (SHR) and Sprague-Dawley (SD) female rats weighing about 144-385 g each, were used in this experiment. The rats were anesthetized with ketamine hydrochloride (150 mg/kg) in order to cannulate the left iliac artery and to implant an osmotic pump. All surgery was performed under aseptic conditions. Stretched PE 50 tubing was fitted with an injection cap and flushed with heparinized saline, routed subcutaneously, exteriorized between the capsulae, and passed through a spring tether that is anchored to the skin with a nylon button. Extreme care was taken in cannulating the left iliac artery to avoid damage to collateral circulation and local innervation. An (Alzet) osmotic pump filled with relaxin or vehicle was then inserted into a subcutaneous pocket caudal to the exit point of the cannula.
All wounds were closed with suture, infiltrated with Xylocaine and coated with Betadine. […] Arterial pressure, heart rate, water intake, urine volume and vascular blood volume were measured daily throughout the duration of the experiments.
Arterial pressure and heart rate were measured directly through the arterial cannulae with standard pressure transducers (Stoelting) and strain gauge amplifiers (Stoelting). […]

With relaxin the biological activity (pubic symphysis) was “biologically active”, the “transient increases in coronary perfusion pressure” value (rat isolated heart) was “not seen” and the “effect on LVDP” value (rat isolated heart; atria removed (LVDP 143±9 mmHg), 0.83 pMol) was “significantly reduced the LVDP to control levels”. For the same substance, the maximum beating rate (rat isolated heart; atria removed, basal 139±15 bpm) was 268±7 bpm, the maximum beating rate (rat isolated heart; intact heart preparations, basal 270±7 bpm) was 412±18 bpm and the inotropic effect (rat isolated heart; isolated heart preparations) was “no positive inotropic effects”. For the same substance, the “duration of chronotropic effect” value (rat isolated heart; relaxin: single bolus administration of 830 pMol) was “up to two hours” and the uterine weight [1] was “increased uterine weights”.
